Results taken from US20240327382A1 (ALMAC DISCOVERY LIMITED, priority 2021, published 2024).

These compounds were tested against T1, Full-length USP19 (Homo sapiens, UniProt O94966) (assay: USP19 fluorescence polarisation (FP) assay, Ubiquitin-Lys-TAMRA substrate). Details: average of at least two duplicate experiments.
T1 construct: Full-length USP19 was purchased from Boston Biochem (E-576); purchased Boston Biochem E-576
T1 sequence (O94966 1-1318): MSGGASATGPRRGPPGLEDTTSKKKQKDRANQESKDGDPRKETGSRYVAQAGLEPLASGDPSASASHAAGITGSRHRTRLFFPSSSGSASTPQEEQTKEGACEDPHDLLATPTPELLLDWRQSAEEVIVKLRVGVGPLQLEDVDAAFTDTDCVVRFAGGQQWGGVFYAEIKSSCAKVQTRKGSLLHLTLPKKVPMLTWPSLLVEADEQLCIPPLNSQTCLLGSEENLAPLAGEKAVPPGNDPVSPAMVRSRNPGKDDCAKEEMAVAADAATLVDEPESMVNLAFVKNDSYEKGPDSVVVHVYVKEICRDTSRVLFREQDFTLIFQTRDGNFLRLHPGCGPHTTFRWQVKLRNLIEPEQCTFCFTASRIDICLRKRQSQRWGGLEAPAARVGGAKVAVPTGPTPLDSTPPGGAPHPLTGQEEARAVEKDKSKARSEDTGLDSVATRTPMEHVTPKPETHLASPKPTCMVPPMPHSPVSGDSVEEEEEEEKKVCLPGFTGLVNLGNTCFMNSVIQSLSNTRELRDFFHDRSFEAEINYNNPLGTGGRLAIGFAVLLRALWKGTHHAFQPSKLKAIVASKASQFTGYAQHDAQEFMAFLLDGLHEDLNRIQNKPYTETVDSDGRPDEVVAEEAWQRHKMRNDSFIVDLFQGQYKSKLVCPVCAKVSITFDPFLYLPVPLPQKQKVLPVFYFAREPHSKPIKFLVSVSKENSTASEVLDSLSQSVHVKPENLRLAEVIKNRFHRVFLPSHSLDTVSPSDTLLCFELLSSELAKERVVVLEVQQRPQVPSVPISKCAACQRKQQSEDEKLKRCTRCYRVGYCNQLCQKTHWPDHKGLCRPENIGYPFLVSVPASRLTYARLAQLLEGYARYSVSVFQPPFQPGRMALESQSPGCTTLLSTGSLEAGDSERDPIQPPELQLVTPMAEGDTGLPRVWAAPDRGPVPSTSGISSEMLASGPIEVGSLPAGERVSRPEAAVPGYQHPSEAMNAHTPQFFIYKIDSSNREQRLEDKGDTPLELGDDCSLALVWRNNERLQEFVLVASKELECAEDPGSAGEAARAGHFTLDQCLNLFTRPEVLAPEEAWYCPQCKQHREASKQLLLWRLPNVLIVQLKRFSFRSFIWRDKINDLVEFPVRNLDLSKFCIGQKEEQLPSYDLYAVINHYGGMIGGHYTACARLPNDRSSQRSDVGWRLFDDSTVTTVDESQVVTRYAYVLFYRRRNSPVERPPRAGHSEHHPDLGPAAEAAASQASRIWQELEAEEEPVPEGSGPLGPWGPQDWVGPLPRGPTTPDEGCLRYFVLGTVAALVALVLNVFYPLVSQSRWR
Assay type: biochemical
In short: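 Fluorescence polarisation (excitation 530 nm, parallel and perpendicular emission at 575 nm) was recorded every 15 min for 90 min after adding the ubiquitin-Lys-TAMRA isopeptide (500 nM as dispensed). Beforehand, the full-length enzyme (2.5 nM as dispensed) sat 30 min at RT with compound diluted from 200 μM to 2 μM in HEPES pH 7.4 buffer with 150 mM NaCl, 5 mM DTT, 0.05% BSA and 0.05% CHAPS. Values normalised to uninhibited wells gave IC50s by non-linear fitting, each the mean of two or more duplicate runs.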
With `CN[C@@H]1CCN(C(=O)N2CC[C@@H](Cn3cnc(C(F)F)cc3=O)C3(CCCC3)C2)[C@H](c2ccc(F)cc2F)C1` [Example 130, 6-(Difluoromethyl)-3-(((R)-7-((2S,4R)-2-(2,4-difluorophenyl)-4-(methylamino)piperidine-1-carbonyl)-7-azaspiro[4.5]decan-10-yl)methyl)pyrimidin-4(3H)-one] the IC50 was under 0.01 µM. Compound `CN[C@@H]1CCN(C(=O)N2CC[C@@H](Cn3ccc(-c4ccccc4OC)cc3=O)C3(CCCC3)C2)[C@H](c2cccc(F)c2F)C1` [Example 131, 1-(((R)-7-((2S,4R)-2-(2,3-Difluorophenyl)-4-(methylamino)piperidine-1-carbonyl)-7-azaspiro[4.5]decan-10-yl)methyl)-4-(2-methoxyphenyl)pyridin-2(1H)-one] has an IC50 of under 0.01 µM. Work on `CN[C@@H]1CCN(C(=O)N2CC[C@@H](Cn3cnc(-c4ccccc4)cc3=O)C3(CCCC3)C2)[C@H](c2cccc(F)c2F)C1` [Example 132, 3-(((R)-7-((2S,4R)-2-(2,3-Difluorophenyl)-4-(methylamino)piperidine-1-carbonyl)-7-azaspiro[4.5]decan-10-yl)methyl)-6-phenylpyrimidin-4(3H)-one] yielded an IC50 of under 0.01 µM. `CN[C@@H]1CCN(C(=O)N2CC[C@@H](Cn3cnc(-c4ccccc4)cc3=O)C3(CCCC3)C2)[C@H](c2ccc(F)c(F)c2)C1` [Example 133, 3-(((R)-7-((2S,4R)-2-(3,4-Difluorophenyl)-4-(methylamino)piperidine-1-carbonyl)-7-azaspiro[4.5]decan-10-yl)methyl)-6-phenylpyrimidin-4(3H)-one] was tested, and the IC50 was under 0.01 µM. Compound `COc1ccccc1-c1cc(=O)n(C[C@@H]2CCN(C(=O)N3CC[C@@H](NCC(F)F)C[C@H]3c3cc(F)ccc3F)CC23CCCC3)cn1` [Example 134, 3-(((R)-7-((2S,4R)-4-((2,2-Difluoroethyl)amino)-2-(2,5-difluorophenyl)piperidine-1-carbonyl)-7-azaspiro[4.5]decan-10-yl)methyl)-6-(2-methoxyphenyl)pyrimidin-4(3H)-one] has an IC50 of under 0.01 µM. `O=C(N1CC[C@@H](Cn2cnc(-c3ccccc3)cc2=O)C2(CCCC2)C1)N1CC[C@@H](NC2CC(F)(F)C2)C[C@H]1c1ccccc1` [Example 135, 3-(((R)-7-((2S,4R)-4-((3,3-Difluorocyclobutyl)amino)-2-phenylpiperidine-1-carbonyl)-7-azaspiro[4.5]decan-10-yl)methyl)-6-phenylpyrimidin-4(3H)-one] was tested, and the IC50 was under 0.01 µM. In the case of `CN[C@@H]1CCN(C(=O)N2CC[C@@H](Cn3cnc(-c4ccccc4C)cc3=O)C3(CCCC3)C2)[C@H](c2cccc(F)c2F)C1` [Example 136, 3-(((R)-7-((2S,4R)-2-(2,3-Difluorophenyl)-4-(methylamino)piperidine-1-carbonyl)-7-azaspiro[4.5]decan-10-yl)methyl)-6-(0-tolyl)pyrimidin-4(3H)-one], the IC50 is reported as under 0.01 µM. Compound `CN[C@@H]1CCN(C(=O)N2CC[C@@H](Cn3cnc(-c4ccccc4C)cc3=O)C3(CCCC3)C2)[C@H](c2ccc(F)cc2F)C1` [Example 137, 3-(((R)-7-((2S,4R)-2-(2,4-Difluorophenyl)-4-(methylamino)piperidine-1-carbonyl)-7-azaspiro[4.5]decan-10-yl)methyl)-6-(o-tolyl)pyrimidin-4(3H)-one] has an IC50 of under 0.01 µM. In the case of `CN[C@@H]1CCN(C(=O)N2CC[C@@H](Cn3cnc(-c4ccccc4OC)cc3=O)C3(CCCC3)C2)[C@H](c2ccc(F)c(F)c2)C1` [Example 138, 3-(((R)-7-((2S,4R)-2-(3,4-Difluorophenyl)-4-(methylamino)piperidine-1-carbonyl)-7-azaspiro[4.5]decan-10-yl)methyl)-6-(2-methoxyphenyl)pyrimidin-4(3H)-one], the IC50 is reported as under 0.01 µM. With `CN[C@@H]1CCN(C(=O)N2CC[C@@H](Cn3cnc(-c4ccccc4C)cc3=O)C3(CCCC3)C2)[C@H](c2ccc(F)c(F)c2)C1` [Example 139, 3-(((R)-7-((2S,4R)-2-(3,4-Difluorophenyl)-4-(methylamino)piperidine-1-carbonyl)-7-azaspiro[4.5]decan-10-yl)methyl)-6-(0-tolyl)pyrimidin-4(3H)-one] the IC50 was under 0.01 µM. For `CN[C@@H]1CCN(C(=O)N2CC[C@@H](Cn3cnc(-c4ccccc4F)cc3=O)C3(CCCC3)C2)[C@H](c2cccc(F)c2F)C1` [Example 140, 3-(((R)-7-((2S,4R)-2-(2,3-Difluorophenyl)-4-(methylamino)piperidine-1-carbonyl)-7-azaspiro[4.5]decan-10-yl)methyl)-6-(2-fluorophenyl)pyrimidin-4(3H)-one], the IC50 was under 0.01 µM. For `CN[C@@H]1CCN(C(=O)N2CC[C@@H](Cn3cnc(-c4ccccc4F)cc3=O)C3(CCCC3)C2)[C@H](c2ccc(F)cc2F)C1` [Example 141, 3-(((R)-7-((2S,4R)-2-(2,4-Difluorophenyl)-4-(methylamino)piperidine-1-carbonyl)-7-azaspiro[4.5]decan-10-yl)methyl)-6-(2-fluorophenyl)pyrimidin-4(3H)-one], the IC50 was under 0.01 µM. `CN[C@@H]1CCN(C(=O)N2CC[C@@H](Cn3cnc(-c4ccccc4F)cc3=O)C3(CCCC3)C2)[C@H](c2ccc(F)c(F)c2)C1` [Example 142, 3-(((R)-7-((2S,4R)-2-(3,4-Difluorophenyl)-4-(methylamino)piperidine-1-carbonyl)-7-azaspiro[4.5]decan-10-yl)methyl)-6-(2-fluorophenyl)pyrimidin-4(3H)-one] was tested, and the IC50 was under 0.01 µM. Work on `CN[C@@H]1CCN(C(=O)N2CC[C@@H](Cn3cnc(-c4ccccc4F)cc3=O)C3(CCCC3)C2)[C@H](c2cc(F)cc(F)c2)C1` [Example 143, 3-(((R)-7-((2S,4R)-2-(3,5-Difluorophenyl)-4-(methylamino)piperidine-1-carbonyl)-7-azaspiro[4.5]decan-10-yl)methyl)-6-(2-fluorophenyl)pyrimidin-4(3H)-one] yielded an IC50 of under 0.01 µM. In the case of `O=C(N1CC[C@@H](Cn2cnc(-c3ccccc3)cc2=O)C2(CCCC2)C1)N1CC[C@@H](NCc2ccccn2)C[C@H]1c1ccccc1` [Example 144, 6-Phenyl-3-(((R)-7-((2S,4R)-2-phenyl-4-((pyridin-2-ylmethyl)amino)piperidine-1-carbonyl)-7-azaspiro[4.5]decan-10-yl)methyl)pyrimidin-4(3H)-one], the IC50 is reported as under 0.01 µM. With `CN[C@@H]1CCN(C(=O)N2CC[C@@H](Cn3cnc(-c4ccccc4F)cc3=O)C3(CCCC3)C2)[C@H](c2cc(F)ccc2F)C1` [Example 145, 3-(((R)-7-((2S,4R)-2-(2,5-Difluorophenyl)-4-(methylamino)piperidine-1-carbonyl)-7-azaspiro[4.5]decan-10-yl)methyl)-6-(2-fluorophenyl)pyrimidin-4(3H)-one] the IC50 was under 0.01 µM. `CN[C@@H]1CCN(C(=O)N2CC[C@@H](Cn3cnc(-c4ccccc4C)cc3=O)C3(CCCC3)C2)[C@H](c2cc(F)cc(F)c2)C1` [Example 146, 3-(((R)-7-((2S,4R)-2-(3,5-Difluorophenyl)-4-(methylamino)piperidine-1-carbonyl)-7-azaspiro[4.5]decan-10-yl)methyl)-6-(o-tolyl)pyrimidin-4(3H)-one] gave an IC50 of under 0.01 µM. For `Cn1ccc(N[C@@H]2CCN(C(=O)N3CC[C@@H](Cn4cnc(-c5ccccc5)cc4=O)C4(CCCC4)C3)[C@H](c3ccccc3)C2)n1` [Example 147, 3-(((R)-7-((2S,4R)-4-((1-Methyl-1H-pyrazol-3-yl)amino)-2-phenylpiperidine-1-carbonyl)-7-azaspiro[4.5]decan-10-yl)methyl)-6-phenylpyrimidin-4(3H)-one], the IC50 was 0.1 to 1 µM. With `O=C(N1CC[C@@H](Cn2cnc(-c3ccccc3)cc2=O)C2(CCCC2)C1)N1CC[C@@H](NCc2ccc(F)cn2)C[C@H]1c1ccccc1` [Example 148, 3-(((R)-7-((2S,4R)-4-(((5-Fluoropyridin-2-yl)methyl)amino)-2-phenylpiperidine-1-carbonyl)-7-azaspiro[4.5]decan-10-yl)methyl)-6-phenylpyrimidin-4(3H)-one] the IC50 was under 0.01 µM.
